Experimental data from PMC7848910, “Multimodularity of a GH10 Xylanase Found in the Termite Gut Metagenome” (Applied and Environmental Microbiology, 2021).

Columns and labels:
Assay in all cases: microscale thermophoresis, initial fluorescence analysis, RED-NHS labelled protein
Format in all cases: binding
Conditions in all cases: 50 mM phosphate pH 7, 0.05% Pluronic F-127
CBM4-1 (M8) = molecular target: T1, CBM4-1 (M8) (termite gut metagenome, UniProt S0DFK9)
T1 construct: gene Pm25; isolated CBM4-1 domain, L167-L320 by primer name (domain 161-321), pET28a(+), E. coli Tuner(DE3), TALON-purified
T1 sequence (S0DFK9 167-320 limits assumed): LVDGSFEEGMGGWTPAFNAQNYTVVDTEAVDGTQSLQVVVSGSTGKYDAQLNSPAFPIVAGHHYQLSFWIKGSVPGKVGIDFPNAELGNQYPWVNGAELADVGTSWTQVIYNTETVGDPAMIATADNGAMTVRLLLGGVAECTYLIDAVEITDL

[1] = molecular target: T2, Pm25ΔCBMs (M6; M7 = Pm25ΔCBMs E546A) (termite gut metagenome, UniProt S0DFK9, E546A, form not given)
T2 construct: gene Pm25; Pm25 without its two inserted CBM4s (catalytic domain 66-151 and 514-753); synthetic gene, E. coli Tuner(DE3), TALON-purified
T2 sequence (S0DFK9 30-160 limits assumed, stated change not applied): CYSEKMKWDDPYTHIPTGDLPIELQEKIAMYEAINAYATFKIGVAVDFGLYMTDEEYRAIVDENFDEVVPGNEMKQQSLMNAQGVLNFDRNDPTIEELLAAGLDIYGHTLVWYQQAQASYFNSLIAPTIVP
T2 sequence (S0DFK9 487-776 E546A limits assumed): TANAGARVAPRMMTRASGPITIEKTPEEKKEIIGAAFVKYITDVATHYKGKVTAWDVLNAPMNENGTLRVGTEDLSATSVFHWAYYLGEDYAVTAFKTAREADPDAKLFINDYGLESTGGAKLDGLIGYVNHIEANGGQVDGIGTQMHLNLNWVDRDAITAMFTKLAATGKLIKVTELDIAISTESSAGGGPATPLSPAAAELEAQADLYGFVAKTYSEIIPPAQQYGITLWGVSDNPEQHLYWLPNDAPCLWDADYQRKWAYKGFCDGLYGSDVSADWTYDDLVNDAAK

CBM4-2 (M9) = molecular target: T3, CBM4-2 (M9) (termite gut metagenome, UniProt S0DFK9)
T3 construct: gene Pm25; isolated CBM4-2 domain, D332-D484 by primer name (domain 324-486), pET28a(+), E. coli Tuner(DE3), TALON-purified
T3 sequence (S0DFK9 332-484 limits assumed): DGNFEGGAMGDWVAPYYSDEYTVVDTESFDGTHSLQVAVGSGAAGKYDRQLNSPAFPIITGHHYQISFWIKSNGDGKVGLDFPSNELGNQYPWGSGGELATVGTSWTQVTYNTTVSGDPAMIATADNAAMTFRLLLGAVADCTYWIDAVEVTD

SMILES: OC1OC[C@@H](O[C@@H]2OC[C@@H](O[C@@H]3OC[C@@H](O[C@@H]4OC[C@@H](O[C@@H]5OC[C@@H](O[C@@H]6OC[C@@H](O)[C@H](O)[C@H]6O)[C@H](O)[C@H]5O)[C@H](O)[C@H]4O)[C@H](O)[C@H]3O)[C@H](O)[C@H]2O)[C@H](O)[C@H]1O (stereo partly drawn) [X6, xylohexaose]
- Kd (CBM4-1 (M8)): 4700 ± 400 µM
- Kd [1]: 1500 ± 200 µM
- Kd (CBM4-2 (M9)): 1800 ± 100 µM
